The values below come from paper PMC6199744, “Development of Chemical Proteomics for the Folateome and Analysis of the Kinetoplastid Folateome” (ACS Infectious Diseases, 2018).

Holding throughout (format): binding
Assay [1] addresses T1, HeLa cell extract proteins (Homo sapiens, UniProt P39656).
T1 construct: endogenous in cells; host or cells: HeLa cell extract
T1 sequence (P39656 43-456): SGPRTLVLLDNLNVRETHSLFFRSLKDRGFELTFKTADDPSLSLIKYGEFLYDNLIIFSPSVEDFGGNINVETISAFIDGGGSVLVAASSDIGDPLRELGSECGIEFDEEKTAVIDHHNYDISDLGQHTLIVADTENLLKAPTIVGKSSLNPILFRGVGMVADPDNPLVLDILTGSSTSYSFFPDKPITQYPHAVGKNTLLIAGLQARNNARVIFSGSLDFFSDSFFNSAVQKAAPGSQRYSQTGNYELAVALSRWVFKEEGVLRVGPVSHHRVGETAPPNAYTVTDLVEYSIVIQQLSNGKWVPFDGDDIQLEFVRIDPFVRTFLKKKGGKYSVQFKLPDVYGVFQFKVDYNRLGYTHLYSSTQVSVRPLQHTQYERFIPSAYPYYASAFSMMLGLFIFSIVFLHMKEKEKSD

Assay [2] addresses T2, HeLa cell extract proteins (Homo sapiens, UniProt O95816).
T2 construct: endogenous in cells; host or cells: HeLa cell extract

In assay [3] the target is T3, HeLa cell extract proteins (Homo sapiens, UniProt Q9Y233).
T3 construct: endogenous in cells; host or cells: HeLa cell extract

Assay [4] concerns the target T4, HeLa cell extract proteins (Homo sapiens, UniProt Q9H974).
T4 construct: endogenous in cells; host or cells: HeLa cell extract

For assay [5], the target named is T5, HeLa cell extract proteins (Homo sapiens, UniProt P06576).
T5 construct: endogenous in cells; host or cells: HeLa cell extract

The target in assay [6] is T6, HeLa cell extract proteins (Homo sapiens, UniProt P00367).
T6 construct: endogenous in cells; host or cells: HeLa cell extract

Assay [7] has as its target T7, HeLa cell extract proteins (Homo sapiens, UniProt P13073).
T7 construct: endogenous in cells; host or cells: HeLa cell extract

Assay [8] has as its target T8, HeLa cell extract proteins (Homo sapiens, UniProt O95163).
T8 construct: endogenous in cells; host or cells: HeLa cell extract
T8 sequence (O95163 1-1332): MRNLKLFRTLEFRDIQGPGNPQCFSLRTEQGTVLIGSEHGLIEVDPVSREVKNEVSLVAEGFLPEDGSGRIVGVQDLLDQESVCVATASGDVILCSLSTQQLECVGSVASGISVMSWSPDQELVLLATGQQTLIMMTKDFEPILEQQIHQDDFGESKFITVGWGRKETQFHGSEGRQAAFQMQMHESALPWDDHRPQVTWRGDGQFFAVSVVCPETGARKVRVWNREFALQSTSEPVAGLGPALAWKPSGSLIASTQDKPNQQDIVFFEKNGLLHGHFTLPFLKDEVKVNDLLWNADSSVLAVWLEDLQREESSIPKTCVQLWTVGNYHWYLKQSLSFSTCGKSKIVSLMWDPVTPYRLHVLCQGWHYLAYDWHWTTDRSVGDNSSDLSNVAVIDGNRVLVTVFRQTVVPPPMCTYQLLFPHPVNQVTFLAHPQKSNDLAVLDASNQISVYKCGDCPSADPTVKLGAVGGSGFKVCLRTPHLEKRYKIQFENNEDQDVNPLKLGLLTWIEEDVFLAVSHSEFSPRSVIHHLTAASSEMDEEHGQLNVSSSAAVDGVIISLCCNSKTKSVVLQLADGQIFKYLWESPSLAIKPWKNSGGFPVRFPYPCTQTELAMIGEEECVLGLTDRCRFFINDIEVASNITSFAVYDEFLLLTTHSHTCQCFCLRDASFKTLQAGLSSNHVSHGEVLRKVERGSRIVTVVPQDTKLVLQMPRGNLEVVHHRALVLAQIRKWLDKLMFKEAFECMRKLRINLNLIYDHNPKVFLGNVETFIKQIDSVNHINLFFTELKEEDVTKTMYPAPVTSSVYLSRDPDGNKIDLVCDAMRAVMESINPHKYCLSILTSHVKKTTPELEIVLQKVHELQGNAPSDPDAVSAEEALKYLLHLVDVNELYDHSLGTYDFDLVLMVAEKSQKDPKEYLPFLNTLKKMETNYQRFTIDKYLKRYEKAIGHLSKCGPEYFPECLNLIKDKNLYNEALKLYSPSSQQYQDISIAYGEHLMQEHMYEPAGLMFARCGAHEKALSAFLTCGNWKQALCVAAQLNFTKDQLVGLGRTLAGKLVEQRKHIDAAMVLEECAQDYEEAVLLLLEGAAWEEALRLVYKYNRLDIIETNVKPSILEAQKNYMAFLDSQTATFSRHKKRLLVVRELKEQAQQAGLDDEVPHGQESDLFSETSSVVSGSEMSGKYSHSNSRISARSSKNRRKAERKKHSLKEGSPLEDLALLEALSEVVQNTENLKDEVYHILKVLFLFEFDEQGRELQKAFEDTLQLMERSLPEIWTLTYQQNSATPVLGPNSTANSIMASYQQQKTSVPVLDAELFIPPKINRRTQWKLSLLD

The target in assay [9] is T9, HeLa cell extract proteins (Homo sapiens, UniProt Q9Y265).
T9 construct: endogenous in cells; host or cells: HeLa cell extract

Assay [10] deals with T10, HeLa cell extract proteins (Homo sapiens, UniProt Q8NF37).
T10 construct: endogenous in cells; host or cells: HeLa cell extract
T10 sequence (Q8NF37 1-534): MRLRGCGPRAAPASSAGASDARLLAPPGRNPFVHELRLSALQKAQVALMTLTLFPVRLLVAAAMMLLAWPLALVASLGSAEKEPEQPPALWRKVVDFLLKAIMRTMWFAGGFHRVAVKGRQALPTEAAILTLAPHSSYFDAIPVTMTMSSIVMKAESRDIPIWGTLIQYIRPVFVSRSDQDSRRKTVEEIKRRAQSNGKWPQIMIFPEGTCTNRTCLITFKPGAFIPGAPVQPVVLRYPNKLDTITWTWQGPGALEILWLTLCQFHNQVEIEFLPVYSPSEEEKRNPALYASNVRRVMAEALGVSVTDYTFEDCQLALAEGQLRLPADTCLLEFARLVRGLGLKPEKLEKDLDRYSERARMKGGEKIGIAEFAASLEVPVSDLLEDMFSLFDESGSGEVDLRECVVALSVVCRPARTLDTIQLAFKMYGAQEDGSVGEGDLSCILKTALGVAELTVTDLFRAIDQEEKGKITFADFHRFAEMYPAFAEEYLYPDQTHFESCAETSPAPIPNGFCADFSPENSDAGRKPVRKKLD

SMILES strings stand for the structures. Like-named read-outs stand apart in the source and are kept apart here.

T2 sequence (O95816 whole entry): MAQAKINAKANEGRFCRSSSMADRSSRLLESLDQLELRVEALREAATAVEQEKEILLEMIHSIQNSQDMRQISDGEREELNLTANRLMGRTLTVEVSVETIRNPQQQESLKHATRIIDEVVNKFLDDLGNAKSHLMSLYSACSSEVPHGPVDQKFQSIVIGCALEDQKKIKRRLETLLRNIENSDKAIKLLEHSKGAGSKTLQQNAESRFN
T9 sequence (Q9Y265 whole entry): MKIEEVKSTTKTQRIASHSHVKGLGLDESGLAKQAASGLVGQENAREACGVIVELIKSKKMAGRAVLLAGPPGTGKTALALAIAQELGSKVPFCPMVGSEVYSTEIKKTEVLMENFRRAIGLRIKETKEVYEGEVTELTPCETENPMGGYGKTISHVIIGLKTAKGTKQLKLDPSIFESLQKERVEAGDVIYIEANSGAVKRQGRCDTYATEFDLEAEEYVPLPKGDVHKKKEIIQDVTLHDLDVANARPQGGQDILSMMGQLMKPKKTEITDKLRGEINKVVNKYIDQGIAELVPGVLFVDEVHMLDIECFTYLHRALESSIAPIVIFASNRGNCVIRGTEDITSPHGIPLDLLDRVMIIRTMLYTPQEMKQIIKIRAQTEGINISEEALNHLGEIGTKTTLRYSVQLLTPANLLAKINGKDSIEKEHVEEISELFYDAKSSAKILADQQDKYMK
T7 sequence (P13073 23-169): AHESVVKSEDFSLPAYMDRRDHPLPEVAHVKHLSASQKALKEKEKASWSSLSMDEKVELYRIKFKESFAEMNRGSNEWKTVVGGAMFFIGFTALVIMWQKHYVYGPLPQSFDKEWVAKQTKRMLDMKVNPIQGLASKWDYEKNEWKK
T3 sequence (Q9Y233 whole entry): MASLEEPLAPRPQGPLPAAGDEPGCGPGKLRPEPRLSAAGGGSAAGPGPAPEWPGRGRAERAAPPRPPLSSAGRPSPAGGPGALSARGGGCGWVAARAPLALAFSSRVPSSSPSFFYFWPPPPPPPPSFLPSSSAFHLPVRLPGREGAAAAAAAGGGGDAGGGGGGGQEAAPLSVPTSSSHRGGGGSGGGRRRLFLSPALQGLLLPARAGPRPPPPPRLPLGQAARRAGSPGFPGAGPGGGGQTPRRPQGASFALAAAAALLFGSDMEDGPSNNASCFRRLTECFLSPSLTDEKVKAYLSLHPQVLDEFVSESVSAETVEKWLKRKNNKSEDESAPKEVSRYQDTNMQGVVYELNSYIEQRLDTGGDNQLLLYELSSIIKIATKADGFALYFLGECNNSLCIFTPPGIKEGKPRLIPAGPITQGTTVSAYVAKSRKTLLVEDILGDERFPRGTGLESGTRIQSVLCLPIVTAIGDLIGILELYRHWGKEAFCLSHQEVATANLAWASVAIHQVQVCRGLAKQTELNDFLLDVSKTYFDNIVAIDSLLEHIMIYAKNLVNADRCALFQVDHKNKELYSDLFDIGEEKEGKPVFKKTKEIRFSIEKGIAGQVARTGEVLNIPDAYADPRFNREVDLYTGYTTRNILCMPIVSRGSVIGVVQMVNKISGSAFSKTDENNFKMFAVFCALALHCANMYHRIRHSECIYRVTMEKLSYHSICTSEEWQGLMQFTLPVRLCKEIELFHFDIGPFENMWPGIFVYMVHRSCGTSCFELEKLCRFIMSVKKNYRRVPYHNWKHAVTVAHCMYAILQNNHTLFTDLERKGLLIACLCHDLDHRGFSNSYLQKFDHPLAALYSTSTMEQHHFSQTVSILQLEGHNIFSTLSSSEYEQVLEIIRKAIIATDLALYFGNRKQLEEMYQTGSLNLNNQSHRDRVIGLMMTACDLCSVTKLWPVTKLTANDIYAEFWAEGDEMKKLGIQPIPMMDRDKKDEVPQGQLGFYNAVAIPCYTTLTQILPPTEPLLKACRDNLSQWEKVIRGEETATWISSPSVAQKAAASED
T5 sequence (P06576 48-529): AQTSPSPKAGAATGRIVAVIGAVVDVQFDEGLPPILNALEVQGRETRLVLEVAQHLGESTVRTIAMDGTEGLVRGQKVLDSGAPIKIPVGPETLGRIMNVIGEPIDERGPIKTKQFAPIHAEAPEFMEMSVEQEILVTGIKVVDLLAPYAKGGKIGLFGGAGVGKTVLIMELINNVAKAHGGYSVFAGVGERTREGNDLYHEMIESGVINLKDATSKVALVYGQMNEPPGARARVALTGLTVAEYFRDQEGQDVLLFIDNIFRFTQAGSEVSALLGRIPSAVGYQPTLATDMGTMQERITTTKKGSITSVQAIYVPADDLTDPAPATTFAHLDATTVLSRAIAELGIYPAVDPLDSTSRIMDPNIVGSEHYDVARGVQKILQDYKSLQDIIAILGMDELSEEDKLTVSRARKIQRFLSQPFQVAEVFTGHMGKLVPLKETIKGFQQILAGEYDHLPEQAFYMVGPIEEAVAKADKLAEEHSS
T6 sequence (P00367 54-558): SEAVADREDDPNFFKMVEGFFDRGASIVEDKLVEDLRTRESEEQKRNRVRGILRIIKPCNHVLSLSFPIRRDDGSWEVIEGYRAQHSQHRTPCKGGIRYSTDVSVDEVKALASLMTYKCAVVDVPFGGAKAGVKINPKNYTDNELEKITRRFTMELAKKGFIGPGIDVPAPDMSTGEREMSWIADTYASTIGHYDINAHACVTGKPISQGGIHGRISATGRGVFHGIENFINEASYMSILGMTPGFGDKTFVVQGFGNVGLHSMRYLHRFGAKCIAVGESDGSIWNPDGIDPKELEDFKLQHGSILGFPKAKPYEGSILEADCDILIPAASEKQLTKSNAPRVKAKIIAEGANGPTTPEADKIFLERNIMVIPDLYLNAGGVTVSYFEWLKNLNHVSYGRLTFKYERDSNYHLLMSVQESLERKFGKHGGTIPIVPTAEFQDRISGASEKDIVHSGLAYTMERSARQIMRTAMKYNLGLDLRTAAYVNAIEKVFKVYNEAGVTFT
T4 sequence (Q9H974 whole entry): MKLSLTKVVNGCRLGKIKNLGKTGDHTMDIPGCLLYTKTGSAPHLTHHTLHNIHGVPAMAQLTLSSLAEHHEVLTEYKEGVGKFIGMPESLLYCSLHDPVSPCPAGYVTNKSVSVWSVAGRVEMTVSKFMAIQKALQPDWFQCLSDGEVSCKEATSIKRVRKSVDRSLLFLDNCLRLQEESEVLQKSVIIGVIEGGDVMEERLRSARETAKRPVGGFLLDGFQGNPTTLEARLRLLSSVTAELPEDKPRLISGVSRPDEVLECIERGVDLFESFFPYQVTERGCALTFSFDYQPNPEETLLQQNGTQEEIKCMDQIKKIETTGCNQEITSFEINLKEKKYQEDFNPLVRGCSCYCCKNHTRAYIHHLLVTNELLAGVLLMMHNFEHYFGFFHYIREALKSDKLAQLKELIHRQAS

Consider `Nc1nc2c(c(=O)[nH]1)N(C=O)C(CNc1ccc(C(=O)N[C@@H](CCC(=O)O)C(=O)O)cc1)CN2` (stereo partly shown) [LEU, leucovorin], for which the “fold changes relative to vehicle control” value in [1] (HeLa, captured protein DDOST) is given as 0.8; in assay [2] (HeLa, protein BAG2) it was 0.96; in assay [3] (protein PDE10A, HeLa) it was 1.01; in [4] (protein QTRTD1, HeLa), 0.93; in assay [5] (HeLa, captured protein ATP5B) it was 1.09; in assay [6] (HeLa, protein GLUD1), 1.06. Further, the “fold changes relative to vehicle control” value in [7] (HeLa, protein COX4I1) was 0.9; in assay [8] (HeLa, captured protein IKBKAP), 1.15; in [9] (HeLa, protein RUVBL1), 1.06; in assay [10] (protein LPCAT1, HeLa), 0.85.
Consider `Nc1nc2[nH]cc(CCc3ccc(C(=O)N[C@@H](CCC(=O)O)C(=O)O)cc3)c2c(=O)[nH]1` [PTX, pemetrexed], for which the “fold changes relative to vehicle control” value in [1] stood at 0.85; in [2] it was 0.95; in assay [3], 0.66; in assay [4], 0.86; in assay [5], 1.07; in assay [6] it was 1.01. For the same compound, the “fold changes relative to vehicle control” value in assay [7] was determined as 0.98; in [8], 1.11; in assay [9], 0.92; in [10], 1.
For `CCCCCCOc1ccc(Cc2cnc(N)nc2N)cc1` [compound 1], the “fold changes relative to vehicle control” value is given as 0.81 in assay [1] (captured protein DDOST, HeLa); 0.9 in [2] (captured protein BAG2, HeLa); 0.96 in assay [3] (captured protein PDE10A, HeLa); 0.46 in [4] (HeLa, protein QTRTD1); 1.02 in [5] (protein ATP5B, HeLa); 1.09 in assay [6] (protein GLUD1, HeLa). Besides, the “fold changes relative to vehicle control” value came out at 1.03 in assay [7] (HeLa, protein COX4I1); 1.33 in [8] (protein IKBKAP, HeLa); 1.32 in assay [9] (protein RUVBL1, HeLa); 0.93 in assay [10] (HeLa, protein LPCAT1).
Regarding `CCCCCCOc1cccc(Cc2cnc(N)nc2N)c1` [compound 2], the “fold changes relative to vehicle control” value in assay [1] (captured protein DDOST, HeLa) is given as 1.1; in assay [2] (captured protein BAG2, HeLa), 1.15; in [3] (captured protein PDE10A, HeLa) it was 0.94; in assay [4] (HeLa, protein QTRTD1), 0.93; in [5] (protein ATP5B, HeLa), 0.83; in assay [6] (protein GLUD1, HeLa), 1.33. The “fold changes relative to vehicle control” value is listed as 1.21 in [7] (HeLa, protein COX4I1); 1.3 in [8] (protein IKBKAP, HeLa); 1.47 in assay [9] (protein RUVBL1, HeLa); 1.07 in assay [10] (HeLa, protein LPCAT1).
`Nc1nc2cccc(-c3ccccc3)c2n1Cc1ccc(Cl)c(Cl)c1` [compound 3]: the “fold changes relative to vehicle control” value in assay [1] (captured protein DDOST, HeLa) came out at 1.05; in [2] (captured protein BAG2, HeLa) it was 0.88; in [3] (captured protein PDE10A, HeLa), 0.99; in assay [4] (HeLa, protein QTRTD1), 0.99; in assay [5] (protein ATP5B, HeLa), 0.96; in [6] (protein GLUD1, HeLa), 0.92. Moreover, the “fold changes relative to vehicle control” value in [7] (HeLa, protein COX4I1) was found to be 1; in [8] (protein IKBKAP, HeLa), 1.12; in assay [9] (protein RUVBL1, HeLa) it was 1.04; in assay [10] (HeLa, protein LPCAT1), 1.11.
As to `NCCOCCOCC(=O)Nc1nc2ncc(CNc3ccc(C(=O)NC(CCC(=O)O)C(=O)O)cc3)nc2c(=O)[nH]1` (stereo not shown) [compound 6], the “fold changes relative to vehicle control” value in assay [1] (HeLa, captured protein DDOST) was 0.95; in assay [2] (HeLa, protein BAG2) it was 0.97; in [3] (protein PDE10A, HeLa), 0.78; in [4] (protein QTRTD1, HeLa), 0.33; in [5] (HeLa, captured protein ATP5B), 0.96; in [6] (HeLa, protein GLUD1), 1.07. For the same compound, the “fold changes relative to vehicle control” value was 1.04 in [7] (HeLa, protein COX4I1); 1.2 in [8] (HeLa, captured protein IKBKAP); 1.07 in [9] (HeLa, protein RUVBL1); 0.92 in assay [10] (protein LPCAT1, HeLa).
On to `NCCCNc1ccc(C(=O)NC(CCC(=O)O)C(=O)O)cc1` (stereo not shown) [compound 7], for which the “fold changes relative to vehicle control” value in [1] (HeLa, captured protein DDOST) stood at 1.07; in assay [2] (HeLa, protein BAG2), 0.97; in assay [3] (protein PDE10A, HeLa), 1; in assay [4] (protein QTRTD1, HeLa), 0.99; in assay [5] (HeLa, captured protein ATP5B) it was 1.04; in [6] (HeLa, protein GLUD1), 0.97. Moreover, the “fold changes relative to vehicle control” value was found to be 1.17 in assay [7] (HeLa, protein COX4I1); 1.01 in assay [8] (HeLa, captured protein IKBKAP); 1.2 in [9] (HeLa, protein RUVBL1); 1.07 in [10] (protein LPCAT1, HeLa).
